Data on one compound can be found in patent US20190307729A1, “ANTIMICROBIAL COMPOUNDS AND METHODS FOR USE THEREOF” (VERSITECH LIMITED, priority 2016, published 2019).

The subject of one data set is L. monocytogenes. As to the kind of experiment: Checkerboard assay with gentamicin.
The test system of another data set is S. pneumoniae. Put plainly: Checkerboard assay with gentamicin.
The next data set concerns E. coli. As to the kind of experiment: Checkerboard assay with gentamicin. In kind it is cell-based, Escherichia coli. As for the experimental part: Bacterial culture are topped and incubated overnight.
The next data set deals with E. faecalis. Put plainly: Checkerboard assay with gentamicin.
The subject of another data set is S. aureus Mu3. As to the kind of experiment: Secondary screening of compound 13 analogues in combination with gentamicin (growth by OD 595 nm). As to conditions: for relative growth: relative to DMSO = 1.
The next data set relates to Vero cells. Put plainly: Cytotoxicity assay (MTT). In kind it is cell-based. The method, then:
MTT assays are performed for selected compounds on Vero cells according to product instructions.

In another data set the test system is P. aeruginosa. As to the kind of experiment: Pigment formation (virulence suppression). In kind it is cell-based, Pseudomonas aeruginosa.
The subject of the next data set is S. aureus Mu3 strain. As to the kind of experiment: Microdilution checkerboard assay of compound with aminoglycosides. (In general: In broth dilution the organism is exposed to a series of concentrations in liquid medium.)

Where two headings read alike, the source gives them in different places.

Method for E. faecalis: (§1) The Checkerboard assay is performed in 96-well microtitre plates. […] The antibiotics are 2 fold serially diluted along the ordinate, the compounds are added along the abscissa to generate the checkerboard concentration gradients between the compounds and the antibiotics. Bacterial culture are topped and incubated overnight. Bacterial growth is monitored by the OD absorbance at 595 nm.
(§2) The concentration tested range was from 500M to 0.98 μM. MICs higher than 500M were not determined.
Method for L. monocytogenes: as §1, §2
Method for S. aureus Mu3 strain: as §1, §2
Method for S. pneumoniae: as §1, §2

Regarding `O=C(O)CN1C(=O)C(=Cc2ccc(OCc3ccc(Cl)cc3)cc2)SC1=S` [Compound 82], the “combined effect with gentamicin in inhibiting growth” value was “potentiating effect” with L. monocytogenes; “potentiating effect” in the data set on S. pneumoniae; “synergistic effect” in the data set with E. coli; “potentiating effect” in the data set on E. coli (listed as compound 82); “potentiating effect” with E. faecalis; “good level of potentiating effect” in the data set on S. aureus Mu3 strain (gentamicin). Also, the “20 μM + 200 μg/ml Gentamicin Growth inhibition Percentage” value with S. aureus Mu3 (20 μM compound + 200 μg/ml gentamicin, S. aureus Mu3) was 91%. In the data set with S. aureus Mu3 (50 μM compound + 200 μg/ml gentamicin, S. aureus Mu3), the “50 μM + 200 μg/ml Gentamicin Growth inhibition Percentage” value is on record as 89%. Besides, the relative growth with S. aureus Mu3 ([Cpd] 5 μM, BHI only (no gentamicin)) is reported as 1.03; in the data set with S. aureus Mu3 ([Cpd] 5 μM, [Genta] 100 ug/ml) it was 0.98; in the data set with S. aureus Mu3 ([Cpd] 5 μM, [Genta] 200 ug/ml), 0.61; with S. aureus Mu3 ([Cpd] 20 μM, BHI only (no gentamicin)), 0.78; in the data set with S. aureus Mu3 ([Cpd] 20 μM, [Genta] 100 ug/ml) it was “*0.09”; with S. aureus Mu3 ([Cpd] 20 μM, [Genta] 200 ug/ml), “*0.09”. Besides, the relative growth in the data set on S. aureus Mu3 ([Cpd] 50 μM, BHI only (no gentamicin)) is recorded as 0.99; in the data set on S. aureus Mu3 ([Cpd] 50 μM, [Genta] 100 ug/ml), “*0.13”; in the data set with S. aureus Mu3 ([Cpd] 50 μM, [Genta] 200 ug/ml) it was “*0.11”. Besides, the “cytotoxicity from Vero cell MTT assays” value with Vero cells was “low cytotoxicity”. The Cytotoxicity result with Vero cells (MTT assays in Vero cells) is recorded as “Low”. In the data set with P. aeruginosa, the pigment formation result is “repressing the pigment formation”. In addition, the “Combinatory effect with gentamicin” value in the data set with S. aureus Mu3 strain (checkerboard) is given as “Potentiating”. In addition, the “combined effect with neamine in inhibiting growth” value in the data set on S. aureus Mu3 strain was “retained its potentiating effect”; in the data set with S. aureus Mu3 strain (listed as compound 82), “potentiating effect”.
